As a reminder, the IC50 is the concentration that inhibits the measured activity by half. A higher IC50 goes with lower potency.

This assay relates to THP-1. Nature of the assay: Cytotoxicity was determined against THP-1 cell line as reduction in cell number. It counts as functional, cell-based. To be noted: Homo sapiens.
`CCc1c2nc(c(-c3ccc(O)c(C[N+](C)(C)C)c3)c3ccc([nH]3)c(CC)c3ccc([nH]3)c(-c3ccc(O)c(C[N+](C)(C)C)c3)c3nc1C=C3)C=C2` gave an IC50 of 88.4 nM.

`CCc1c2nc(c(-c3ccc(OC)c(C[N+](C)(C)C)c3)c3ccc([nH]3)c(CC)c3ccc([nH]3)c(-c3ccc(OC)c(C[N+](C)(C)C)c3)c3nc1C=C3)C=C2` returned an IC50 of 1400 nM. As for `C[N+](C)(C)Cc1cc(-c2c3nc(c(-c4ccccc4)c4ccc([nH]4)c(-c4ccc(O)c(C[N+](C)(C)C)c4)c4ccc([nH]4)c(-c4ccccc4)c4nc2C=C4)C=C3)ccc1O`, it took 61.8 nM to reach half-maximal inhibition (IC50). The molecule `C[N+](C)(C)Cc1cc(-c2c3nc(cc4ccc([nH]4)c(-c4ccc(O)c(C[N+](C)(C)C)c4)c4nc(cc5ccc2[nH]5)C=C4)C=C3)ccc1O` displayed an IC50 of 5.6 nM.

Source of the values: ChEMBL document CHEMBL1149213, “Porphyrin-DNA cross-linking agent hybrids: chemical synthesis and biological studies” (Bioorg Med Chem Lett, 2004).
